This note sets out measurements from patent US12227496B2 (BRISTOL-MYERS SQUIBB COMPANY, priority 2019, dated 2025).

This experiment deals with T1, human FXR (Homo sapiens, UniProt Q96RI1).
T1 construct: expressed in transfected cells; host or cells: HEK293 cells stably carrying a 5xGal4-response-element firefly luciferase reporter, transiently transfected with pcDNA3.1-Gal4-FXR
T1 sequence (Q96RI1 262-486 limits assumed): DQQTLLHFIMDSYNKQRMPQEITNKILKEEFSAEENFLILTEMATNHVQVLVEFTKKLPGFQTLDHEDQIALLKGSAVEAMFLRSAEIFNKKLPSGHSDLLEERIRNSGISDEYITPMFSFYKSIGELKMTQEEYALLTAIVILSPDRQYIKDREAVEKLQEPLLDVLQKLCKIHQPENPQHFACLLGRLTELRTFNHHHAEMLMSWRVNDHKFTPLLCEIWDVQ
Kind of experiment: transient human FXR/Gal4-luciferase reporter assay. Format: cell-based. Particulars: Gal4-hFXR LBD fusion, luciferase reporter in HEK293 cells; response relative to 8 μM GW-4064. As for the experimental part: A Gal4-hFXR fusion construct reporter system was used as the primary assay to characterize compound activity. A construct including 5 copies of the Gal4 promoter response element upstream of a firefly luciferase reporter cDNA was stably expressed in HEK293 cells. This reporter cell line was maintained in Dulbecco's Modified Eagle's medium (DMEM; Gibco) supplemented with 1% penicillin-streptomycin (P/S) solution, 500 μg/mL Zeocin and 10% charcoal/dextran-treated fetal bovine serum (cs-FBS) at 37° C. in a humidified 5% CO2 atmosphere. […] The day prior to transfection, the reporter cells in culture are detached from the plate with trypsin and plated into a T75 flask at a sufficient density to achieve approximately 90% confluence the next morning. […] The mixture is further diluted with 10 mL of a solution comprised of DMEM, 10% cs-FBS, and 1% P/S immediately prior to transferring to the cells. The maintenance culture media is aspirated from the cells and the final transfection mixture is added before the cells are incubated overnight at 37° C. in a humidified 5% CO2 atmosphere. This protocol can be scaled up, and the transiently transfected cells can be cryopreserved in an assay-ready format. For compound testing, 100 nL of the compounds (serial dilutions in DMSO) are dispensed with an Echo acoustic dispenser (Labcyte) into the wells of a Corning/Costar clear bottom 384-well white plate. The transfected cells are harvested, counted, and diluted such that 10-25,000 cells in 25 μL are plated into each well of the 384-well compound assay plate. The compound-treated cells are incubated overnight at 37° C. in a humidified 5% CO2 atmosphere. The next morning 25 μL of Steady-Glo (Promega) are added to each well of the plate, the mixture is incubated for 15 min. with shaking, and luminescence is measured on an Envision (Perkin Elmer) plate reader.

In turn, `Cn1nc(C2CC2)cc1C12CCC(CN(C(=O)C3CCS(=O)(=O)CC3)c3cccc(-c4cc(C5CC5)on4)c3)(CC1)CC2` [Example 131, N-((4-(3-cyclopropyl-1-methyl-1H-pyrazol-5-yl)bicyclo[2.2.2]octan-1-yl)methyl)-N-(3-(5-cyclopropylisoxazol-3-yl)phenyl)tetrahydro-2H-thiopyran-4-carboxamide 1,1-dioxide] displayed an EC50 of 1930 nM.

`Cc1nc2ccc(-c3cccc(N(CC45CCC(c6cc(C7CC7)nn6C)(CC4)CC5)C(=O)C4CCC(F)(F)CC4)c3)cc2s1` [Example 137, N-((4-(3-cyclopropyl-1-methyl-1H-pyrazol-5-yl)bicyclo[2.2.2]octan-1-yl)methyl)-4,4-difluoro-N-(3-(2-methylbenzo[d]thiazol-6-yl)phenyl)cyclohexane-1-carboxamide] came in with a concentration giving a half-maximal response (EC50) of 449 nM.

In the case of `CC(F)(F)c1nc(C23CCC(CN(C(=O)C4CCC(F)(F)CC4)c4cccc(-c5ccc(OC(F)F)cc5)c4)(CC2)CC3)no1` [Example 111, N-((4-(5-(1,1-difluoroethyl)-1,2,4-oxadiazol-3-yl)bicyclo[2.2.2]octan-1-yl)methyl)-N-(4′-(difluoromethoxy)-[1,1′-biphenyl]-3-yl)-4,4-difluorocyclohexane-1-carboxamide], the midpoint of the response, the EC50, lay at 69 nM.

Take `COC(=O)c1noc(-c2cccc(N(CC34CCC(c5nc(C6CC6)no5)(CC3)CC4)C(=O)C3CCCCC3)c2)n1` [Example 2, Methyl 5-(3-(N-((4-(3-cyclopropyl-1,2,4-oxadiazol-5-yl)bicyclo[2.2.2]octan-1-yl)methyl)cyclohexanecarboxamido)phenyl)-1,2,4-oxadiazole-3-carboxylate]: a half-maximal effect (EC50) was put at 211 nM.

`Cc1cn(-c2cccc(N(CC34CCC(c5nc(C(C)(C)C)no5)(CC3)CC4)C(=O)C3CCC(F)(F)CC3)c2)cn1` [Example 142, N-((4-(3-(tert-butyl)-1,2,4-oxadiazol-5-yl)bicyclo[2.2.2]octan-1-yl)methyl)-4,4-difluoro-N-(3-(4-methyl-1H-imidazol-1-yl)phenyl)cyclohexane-1-carboxamide]: a half-maximal effect (EC50) was put at 721 nM.

`Cn1nc(C2CC2)cc1C12CCC(CN(C(=O)C3CCOCC3)c3cccc(-c4ccc(S(C)(=O)=O)cc4)c3)(CC1)CC2` [Example 134, N-((4-(3-cyclopropyl-1-methyl-1H-pyrazol-5-yl)bicyclo[2.2.2]octan-1-yl)methyl)-N-(4′-(methylsulfonyl)-[1,1′-biphenyl]-3-yl)tetrahydro-2H-pyran-4-carboxamide] yielded an EC50 of 511 nM.

`COCc1coc(-c2cccc(N(CC34CCC(c5nc(C6CC6)no5)(CC3)CC4)C(=O)C3CCOCC3)c2)n1` [Example 53, N-((4-(3-cyclopropyl-1,2,4-oxadiazol-5-yl)bicyclo[2.2.2]octan-1-yl)methyl)-N-(3-(4-(methoxymethyl)oxazol-2-yl)phenyl)tetrahydro-2H-pyran-4-carboxamide] displayed a concentration giving a half-maximal response (EC50) of 189 nM.

`CC(C)(C)c1nc(C23CCC(CN(C(=O)C4CCS(=O)(=O)CC4)c4cccc(-c5nc(C6CC6)no5)c4)(CC2)CC3)no1` [Example 117, N-((4-(5-(tert-butyl)-1,2,4-oxadiazol-3-yl)bicyclo[2.2.2]octan-1-yl)methyl)-N-(3-(3-cyclopropyl-1,2,4-oxadiazol-5-yl)phenyl)tetrahydro-2H-thiopyran-4-carboxamide 1,1-dioxide] displayed a concentration for a half-maximal effect (EC50) of 729 nM.

The compound `O=C(C1CCCCC1)N(CC12CCC(c3nc(C4CC4)no3)(CC1)CC2)c1cccc(-c2cnc(C3CCOCC3)o2)c1` [Example 34, N-((4-(3-cyclopropyl-1,2,4-oxadiazol-5-yl)bicyclo[2.2.2]octan-1-yl)methyl)-N-(3-(2-(tetrahydro-2H-pyran-4-yl)oxazol-5-yl)phenyl)cyclohexanecarboxamide] returned a 50% effective concentration (EC50) of 212 nM.

The compound `CC(C)(C)c1noc(C23CCC(CN(C(=O)C4CCOCC4)c4cc(F)cc(-c5nc(C6CC6)no5)c4)(CC2)CC3)n1` [Example 115, N-((4-(3-(tert-butyl)-1,2,4-oxadiazol-5-yl)bicyclo[2.2.2]octan-1-yl)methyl)-N-(3-(3-cyclopropyl-1,2,4-oxadiazol-5-yl)-5-fluorophenyl)tetrahydro-2H-pyran-4-carboxamide] showed an EC50 of 83 nM.

Regarding `CC(F)(F)c1nc(C23CCC(CN(C(=O)C4CCS(=O)(=O)CC4)c4cccc(-c5ccc(OC(F)F)cc5)c4)(CC2)CC3)no1` [Example 110, N-((4-(5-(1,1-difluoroethyl)-1,2,4-oxadiazol-3-yl)bicyclo[2.2.2]octan-1-yl)methyl)-N-(4′-(difluoromethoxy)-[1,1′-biphenyl]-3-yl)tetrahydro-2H-thiopyran-4-carboxamide 1,1-dioxide], the EC50 amounted to 467 nM.

In the case of `CN1CCC(C(=O)N(CC23CCC(c4cc(C5CC5)nn4C)(CC2)CC3)c2cccc(-c3cc(C4CC4)no3)c2)CC1` [Example 140, N-((4-(3-cyclopropyl-1-methyl-1H-pyrazol-5-yl)bicyclo[2.2.2]octan-1-yl)methyl)-N-(3-(3-cyclopropylisoxazol-5-yl)phenyl)-1-methylpiperidine-4-carboxamide], the response was half-maximal at 2640 nM (EC50).

Compound `O=C(C1CCC(F)(F)CC1)N(CC12CCC(c3nc(C4CC4)no3)(CC1)CC2)c1cccc(-c2nc3cc(F)ccc3o2)c1` [Example 93, N-((4-(3-cyclopropyl-1,2,4-oxadiazol-5-yl)bicyclo[2.2.2]octan-1-yl)methyl)-4,4-difluoro-N-(3-(5-fluorobenzo[d]oxazol-2-yl)phenyl)cyclohexane-1-carboxamide] returned an EC50 of 799 nM.

`CCc1noc(-c2cccc(N(C(=O)C3CCCCC3)C(C)C34CCC(c5nc(C)no5)(CC3)CC4)c2)n1` (single isomer, unassigned) [Example 71, N-(3-(3-ethyl-1,2,4-oxadiazol-5-yl)phenyl)-N-(1-(4-(3-methyl-1,2,4-oxadiazol-5-yl)bicyclo[2.2.2]octan-1-yl)ethyl)cyclohexanecarboxamide] returned an EC50 of 547 nM.

Take `Cc1nc2ccc(-c3cccc(N(CC45CCC(c6nc(C7CC7)no6)(CC4)CC5)C(=O)C4CCOCC4)c3)cc2s1` [Example 91, N-((4-(3-cyclopropyl-1,2,4-oxadiazol-5-yl)bicyclo[2.2.2]octan-1-yl)methyl)-N-(3-(2-methylbenzo[d]thiazol-6-yl)phenyl)tetrahydro-2H-pyran-4-carboxamide]: the response was half-maximal at 97 nM (EC50).

`CCOc1cc(-c2cccc(N(CC34CCC(c5nc(C6CC6)no5)(CC3)CC4)C(=O)C3CCC(F)(F)CC3)c2)ccn1` [Example 79, N-((4-(3-cyclopropyl-1,2,4-oxadiazol-5-yl)bicyclo[2.2.2]octan-1-yl)methyl)-N-(3-(2-ethoxypyridin-4-yl)phenyl)-4,4-difluorocyclohexane-1-carboxamide] showed an EC50 of 408 nM.

Regarding `Cc1cnc(C23CCC(CN(C(=O)C4CCCCC4)c4cccc(-c5nc(C6CC6)no5)c4)(CC2)CC3)o1` [Example 35, N-(3-(3-cyclopropyl-1,2,4-oxadiazol-5-yl)phenyl)-N-((4-(5-methyloxazol-2-yl)bicyclo[2.2.2]octan-1-yl)methyl)cyclohexanecarboxamide], the EC50 is 515 nM.

Regarding `COc1cc(-c2cccc(N(CC34CCC(C(=O)NC5CC5)(CC3)CC4)C(=O)C3CCCCC3)c2)ccn1` [Example 98, N-cyclopropyl-4-((N-(3-(2-methoxypyridin-4-yl)phenyl)cyclohexanecarboxamido)methyl)bicyclo[2.2.2]octane-1-carboxamide], the EC50 turned out to be 399 nM.
